Results on 4 molecules are retold here after article PMC11451635, “A Broad Spectrum Lasso Peptide Antibiotic Targeting the Bacterial Ribosome” (Research Square, 2024).

Entries after “also recorded” stand apart in the source; their conditions may differ.

The test system of one experiment is E. coli ribosome. The experiment in a line: Translocation inhibition assay. The class given is biochemical, Escherichia coli. Particulars: 62.5 μM LAR or 250 μM negamycin, EF-G/GTP, primer extension.
The next experiment concerns bacteria. The experiment in a line: Antibiotic activity compared with LAR. Format: cell-based. The conditions noted are these: Supplementary Fig. 11. On the procedure: MICs were determined using broth microdilution method in cation-adjusted Mueller-Hinton Broth (MHBII, BD Difco) following standard procedures unless stated otherwise. Mycobacteria susceptibility was tested in Middlebrook 7H9 medium supplemented with 10% OADC Enrichment (oleic acid, bovine albumin, dextrose, and catalase) (BD Difco). The compounds (2 to 4 μl) were mixed with diluted cultures (5–7 × 10^5 cfu/mL) in MHB (196 to 198 μL) in 96-well round-bottom plates, and 2-fold serial dilutions were made. Plates were incubated at 37°C for 18–22 h, and OD600 readings were taken on Synergy Microplate Reader (Biotek). MIC was determined to be the lowest concentration of antibiotics with no visible growth. For Mycobacterial cultures, the plates were read after two to three days. Susceptibility was also assessed in MOPS minimal medium with 0.4% glucose (M2106 Teknova) and RPMI-1640 medium. Serum effects were tested in MHB with 10% or 50% fetal bovine serum (Invitrogen) or human serum (Heat Inactivated, from human male AB plasma; Sigma-Aldrich). For anaerobic conditions, E. coli was incubated in BD GasPak™ EZ pouch systems. To adjust the pH of the media, 1M NaOH or 1N HCl was used.

Experiment [1] relates to T. thermophilus 70S ribosome. The experiment in a line: X-ray structure of ribosome complex. The class given is binding, Thermus thermophilus. The conditions noted are these: 70S ribosome with mRNA and tRNAs, 250 μM antibiotic.
A further experiment has as its system mycobacteria. Particulars: cited from earlier work.
Another experiment concerns ClpP protease. Particulars: cited from earlier work.

For `CN(CC(=O)O)NC(=O)C[C@H](N)C[C@@H](O)CN` [negamycin, reference compound], in the experiment on E. coli ribosome, the “Inhibition of ribosome translocation” value is “interferes with the movement of mRNA/tRNA complex through the ribosome”. In the case of lariocidin B [LAR-B], the “Antibiotic activity relative to LAR” value in the experiment on bacteria is listed as “antibiotic activity comparable to that of the main LAR product; also recorded: closely matched that of LAR”. In addition, in experiment [1], the “Ribosome binding (X-ray structure)” value is recorded as “Both LAR variants form very similar complexes with the ribosome”.

For lassomycin, the Antimycobacterial activity entry in the experiment with mycobacteria is recorded as “exhibits antimycobacterial activity”. For the same molecule, the Target / activity result with ClpP protease is reported as “targets microbial ClpP protease”. As for triculamin, the Antimycobacterial activity entry in the experiment on mycobacteria was “antimycobacterial”.
